Reference: ChEMBL document CHEMBL1909046, “DrugMatrix in vitro pharmacology data”

Legend:
[1] = target: T1, Neuropeptide Y receptor type 2 (Homo sapiens, UniProt P49146); format: cell membranes, KAN-TS, Membrane; note: in other assays of this panel Not Active means under 50% inhibition at 10 µM
T1 sequence (P49146 whole entry): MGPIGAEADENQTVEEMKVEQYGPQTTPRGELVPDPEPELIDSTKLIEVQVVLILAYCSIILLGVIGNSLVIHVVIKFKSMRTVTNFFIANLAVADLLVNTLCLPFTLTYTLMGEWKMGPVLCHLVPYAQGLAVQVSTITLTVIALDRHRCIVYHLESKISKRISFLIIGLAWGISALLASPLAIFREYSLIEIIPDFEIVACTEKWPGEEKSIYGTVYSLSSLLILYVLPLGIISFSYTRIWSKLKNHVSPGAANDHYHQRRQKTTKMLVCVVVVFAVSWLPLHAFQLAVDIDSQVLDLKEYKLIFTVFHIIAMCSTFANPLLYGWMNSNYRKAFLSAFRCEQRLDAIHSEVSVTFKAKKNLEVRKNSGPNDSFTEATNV

[2] = target: 5-hydroxytryptamine receptor 4 (Cavia porcellus, UniProt O70528); format: cell membranes, Dunkin-Hartley, Striatum, Membrane; note: in other assays of this panel Not Active means under 50% inhibition at 10 µM
[3] = DRUGMATRIX: Glutamate, Kainate radioligand binding (ligand: [3H] Kainic acid); format: cell membranes, Rattus norvegicus, Wistar, Brain, Membrane; settings: Not Active = under 50% inhibition at 10 µM
[4] = target: Sodium-dependent noradrenaline transporter (Homo sapiens, UniProt P23975); assay: DRUGMATRIX: Norepinephrine Transporter radioligand binding (ligand: [125I] RTI-55); format: cell membranes, MDCK, Membrane; settings: Not Active = under 50% inhibition at 10 µM
[5] = DRUGMATRIX: Sigma2 radioligand binding (ligand: [3H] Ifenprodil); format: cell membranes, Rattus norvegicus, Wistar, Brain, Membrane; settings: Not Active = under 50% inhibition at 10 µM
[6] = target: T2, Neutrophil elastase (Homo sapiens, UniProt P08246); format: tissue-based;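 note: inhibition of neutrophil elastase enzyme activity, measured with a p-nitroanilide-linked peptide substrate; in other assays of this panel Not Active means under 50% inhibition at 10 µM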
T2 sequence (P08246 whole entry): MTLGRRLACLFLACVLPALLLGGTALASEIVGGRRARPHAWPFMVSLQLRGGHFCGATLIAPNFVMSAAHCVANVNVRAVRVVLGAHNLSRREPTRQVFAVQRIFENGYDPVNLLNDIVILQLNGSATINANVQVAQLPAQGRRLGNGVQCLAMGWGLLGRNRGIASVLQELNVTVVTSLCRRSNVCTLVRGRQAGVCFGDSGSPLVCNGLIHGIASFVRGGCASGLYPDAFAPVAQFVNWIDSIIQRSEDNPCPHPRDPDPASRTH

[7] = DRUGMATRIX: Phorbol Ester radioligand binding (ligand: [3H] PDBu); format: cell membranes, Mus musculus, ICR, Brain, Membrane; settings: Not Active = under 50% inhibition at 10 µM

Chain of Sodium-dependent noradrenaline transporter (P23975 whole entry): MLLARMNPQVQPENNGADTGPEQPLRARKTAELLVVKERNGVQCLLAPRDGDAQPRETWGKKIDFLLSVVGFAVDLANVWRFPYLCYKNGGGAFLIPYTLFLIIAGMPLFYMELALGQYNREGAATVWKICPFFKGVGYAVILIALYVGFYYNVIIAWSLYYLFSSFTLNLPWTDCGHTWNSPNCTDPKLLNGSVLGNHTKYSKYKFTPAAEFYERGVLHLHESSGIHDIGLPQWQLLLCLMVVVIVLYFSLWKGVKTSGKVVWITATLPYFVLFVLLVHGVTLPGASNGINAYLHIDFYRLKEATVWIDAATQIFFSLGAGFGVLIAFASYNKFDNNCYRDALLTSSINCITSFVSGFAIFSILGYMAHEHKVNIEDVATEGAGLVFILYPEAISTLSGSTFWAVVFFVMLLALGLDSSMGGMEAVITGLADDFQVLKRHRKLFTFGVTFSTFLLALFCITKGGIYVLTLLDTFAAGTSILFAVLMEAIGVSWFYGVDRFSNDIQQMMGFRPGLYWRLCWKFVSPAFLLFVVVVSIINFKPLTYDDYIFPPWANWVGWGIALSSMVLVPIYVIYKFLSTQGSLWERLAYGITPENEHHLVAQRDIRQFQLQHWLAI
Chain of 5-hydroxytryptamine receptor 4 (O70528 whole entry): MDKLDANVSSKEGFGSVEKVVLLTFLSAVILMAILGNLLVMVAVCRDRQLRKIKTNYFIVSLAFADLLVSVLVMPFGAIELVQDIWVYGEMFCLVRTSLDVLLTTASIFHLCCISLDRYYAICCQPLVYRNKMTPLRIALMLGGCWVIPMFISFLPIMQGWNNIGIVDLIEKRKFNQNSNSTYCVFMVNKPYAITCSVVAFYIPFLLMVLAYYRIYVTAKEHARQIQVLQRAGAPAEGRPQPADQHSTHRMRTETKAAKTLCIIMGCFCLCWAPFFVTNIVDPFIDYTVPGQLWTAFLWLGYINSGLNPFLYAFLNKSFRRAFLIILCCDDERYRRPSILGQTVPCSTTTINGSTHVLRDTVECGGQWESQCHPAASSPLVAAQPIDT

Compound | IC50 ([1]; kan-ts) | IC50 [2] | IC50 [3] | Ki [3] | IC50 ([4]; mdck) | IC50 [5] | Ki [5] | IC50 [6] | IC50 [7] | Ki [7] | IC50 ([4]; read-out: IC50) | Ki ([4]; read-out: Ki) | Ki ([1]; kan-ts) | Ki [2] | Ki ([4]; mdck) | Ki [6] | IC50 ([1]; read-out: IC50) | Ki ([1]; read-out: Ki) | IC50 ([5]; read-out: IC50) | Ki ([5]; read-out: Ki)
O=C(Oc1ccccc1C(=O)O)c1ccccc1O [SALSALATE] | Not Active | Not Active | Not Active | Not Active | Not Active | Not Active | Not Active | Not Active | Not Active | Not Active |  |  |  |  |  |  |  |  |  | 
CNC1(c2ccccc2Cl)CCCCC1=O (stereo unspecified) [KETAMINE] | Not Active | Not Active | Not Active | Not Active | Not Active | Not Active | Not Active | Not Active | Not Active | Not Active |  |  |  |  |  |  |  |  |  | 
Fc1ccc(C(c2ccc(F)cc2)N2CCN(C/C=C/c3ccccc3)CC2)cc1 [FLUNARIZINE] | Not Active | Not Active |  |  |  |  |  | Not Active |  |  | 1340 nM | 1330 nM |  |  |  |  |  |  |  | 
CN[C@H]1CC[C@@H](c2ccc(Cl)c(Cl)c2)c2ccccc21 [SERTRALINE] | Not Active | Not Active |  |  |  |  |  | Not Active |  |  |  |  |  |  |  |  |  |  |  | 
O=C(Nc1ccc(Br)cc1)c1cc(Br)cc(Br)c1O [TRIBROMSALAN] | Not Active | Not Active | Not Active | Not Active | Not Active | Not Active | Not Active | Not Active | Not Active | Not Active |  |  |  |  |  |  |  |  |  | 
CC(C)NCC(O)c1ccc(O)c(O)c1 (stereo unspecified) [ISOPROTERENOL] | Not Active | Not Active | Not Active | Not Active | Not Active | Not Active | Not Active | Not Active | Not Active | Not Active |  |  |  |  |  |  |  |  |  | 
Cc1cccc(C)c1OCC(C)N (stereo unspecified) [MEXILETINE] | Not Active | Not Active | Not Active | Not Active | Not Active | Not Active | Not Active | Not Active | Not Active | Not Active |  |  |  |  |  |  |  |  |  | 
MANGANESE CHLORIDE ANHYDROUS | Not Active | Not Active | Not Active | Not Active | Not Active | Not Active | Not Active | Not Active | Not Active | Not Active |  |  | Not Active | Not Active | Not Active | Not Active |  |  |  | 
CCN(CC)CCNC(=O)c1cc(S(C)(=O)=O)ccc1OC [TIAPRIDE] | Not Active | Not Active | Not Active | Not Active | Not Active | Not Active | Not Active | Not Active | Not Active | Not Active |  |  |  |  |  |  |  |  |  | 
Clc1ccc(COC(Cn2ccnc2)c2ccc(Cl)cc2Cl)cc1 (stereo unspecified) [ECONAZOLE] |  | Not Active |  |  |  |  |  | Not Active |  |  |  |  |  |  |  |  | 20.1 µM | 11 µM |  | 
COc1c2occc2cc2ccc(=O)oc12 [METHOXSALEN] | Not Active | Not Active | Not Active | Not Active | Not Active | Not Active | Not Active | Not Active | Not Active | Not Active |  |  |  |  |  |  |  |  |  | 
O.O.O.O.O.O.[Cl-].[Cl-].[Sr+2] [STRONTIUM CHLORIDE HEXAHYDRATE] | Not Active | Not Active | Not Active | Not Active | Not Active | Not Active | Not Active | Not Active | Not Active | Not Active |  |  |  |  |  |  |  |  |  | 
COc1ccc(CCN(C)CCCC(C#N)(c2ccc(OC)c(OC)c2)C(C)C)cc1OC (stereo unspecified) | Not Active | Not Active | Not Active | Not Active |  |  |  | Not Active | Not Active | Not Active |  |  |  |  |  |  |  |  | 2.82 µM | 1740 nM
CCN(CC)CCOc1ccc(/C(=C(/Cl)c2ccccc2)c2ccccc2)cc1 [ENCLOMIPHENE] | Not Active | Not Active |  |  |  |  |  | Not Active |  |  |  |  |  |  |  |  |  |  |  | 
Clc1ccccc1CN1CCc2sccc2C1 [TICLOPIDINE] | Not Active | Not Active | Not Active | Not Active | Not Active |  |  | Not Active | Not Active | Not Active |  |  |  |  |  |  |  |  | 3.26 µM | 2010 nM
CC(C)Oc1ccc2c(=O)c(-c3ccccc3)coc2c1 [IPRIFLAVONE] | Not Active | Not Active | Not Active | Not Active |  | Not Active | Not Active | Not Active | Not Active | Not Active |  |  |  |  |  |  |  |  |  | 
COc1cc2nc(N3CCN(C(=O)C4CCCO4)CC3)nc(N)c2cc1OC (stereo unspecified) [TERAZOSIN] | Not Active | Not Active | Not Active | Not Active | Not Active | Not Active | Not Active | Not Active | Not Active | Not Active |  |  |  |  |  |  |  |  |  | 
C[C@H]1C[C@@H]2[C@H]([C@@H](O)C[C@@]3(C)[C@H]2CC[C@]3(O)C(=O)CO)[C@@]2(C)C=CC(=O)C=C12 [METHYLPREDNISOLONE] | Not Active | Not Active | Not Active | Not Active | Not Active | Not Active | Not Active | Not Active | Not Active | Not Active |  |  |  |  |  |  |  |  |  | 
NC1CCN(c2nc3c(cc2F)c(=O)c(C(=O)O)cn3-c2ccc(F)cc2F)C1 (stereo unspecified) [TOSUFLOXACIN] | Not Active | Not Active | Not Active | Not Active | Not Active | Not Active | Not Active | Not Active | Not Active | Not Active |  |  |  |  |  |  |  |  |  | 
SODIUM ORTHOVANAD | Not Active | Not Active | Not Active | Not Active | Not Active | Not Active | Not Active | Not Active | Not Active | Not Active |  |  | Not Active | Not Active | Not Active | Not Active |  |  |  | 
Cc1c(C)c2c(c(C)c1O)CCC(C)(CN1CCN(c3cc(N4CCCC4)nc(N4CCCC4)n3)CC1)O2 (stereo unspecified) | Not Active | Not Active | Not Active | Not Active | Not Active | Not Active | Not Active | Not Active | Not Active | Not Active |  |  |  |  |  |  |  |  |  | 
O=C(O)c1cn(-c2ccc(F)cc2)c2cc(N3CCNCC3)c(F)cc2c1=O [SARAFLOXACIN] | Not Active | Not Active | Not Active | Not Active | Not Active | Not Active | Not Active | Not Active | Not Active | Not Active |  |  |  |  |  |  |  |  |  | 
Nc1cc(N2CCCCC2)nc(N)[n+]1[O-] [MINOXIDIL] | Not Active | Not Active | Not Active | Not Active | Not Active | Not Active | Not Active | Not Active | Not Active | Not Active |  |  |  |  |  |  |  |  |  | 
CC(C)NCC(O)c1ccc(NS(C)(=O)=O)cc1 (stereo unspecified) [SOTALOL] | Not Active | Not Active | Not Active | Not Active | Not Active | Not Active | Not Active | Not Active | Not Active | Not Active |  |  |  |  |  |  |  |  |  | 
CS(=O)(=O)c1ccc([C@@H](O)[C@@H](CO)NC(=O)C(Cl)Cl)cc1 [THIAMPHENICOL] | Not Active | Not Active | Not Active | Not Active | Not Active | Not Active | Not Active | Not Active | Not Active | Not Active |  |  |  |  |  |  |  |  |  | 
CN(C)CCOC(c1ccccc1)c1ccccc1 [DIPHENHYDRAMINE] | Not Active | Not Active |  |  |  |  |  | Not Active |  |  |  |  |  |  |  |  |  |  |  | 
CCN1CCC[C@H]1CNC(=O)c1cc(S(N)(=O)=O)ccc1OC [LEVOSULPIRIDE] | Not Active | Not Active | Not Active | Not Active | Not Active | Not Active | Not Active | Not Active | Not Active | Not Active |  |  |  |  |  |  |  |  |  | 
CCN(CC)CC(=O)Nc1c(C)cccc1C [LIDOCAINE] | Not Active | Not Active | Not Active | Not Active | Not Active | Not Active | Not Active | Not Active | Not Active | Not Active |  |  |  |  |  |  |  |  |  | 
CNCCC(Oc1ccc(C(F)(F)F)cc1)c1ccccc1 (stereo unspecified) [FLUOXETINE] | Not Active | Not Active |  |  |  |  |  | Not Active |  |  |  |  |  |  |  |  |  |  |  | 
Cc1ccc(NC(=O)c2ccc(CN3CCN(C)CC3)cc2)cc1Nc1nccc(-c2cccnc2)n1 [IMATINIB] | Not Active | Not Active |  |  | Not Active |  |  | Not Active |  |  |  |  |  |  |  |  |  |  |  | 
